pIC50: −log10 of the molar value.
How the values were obtained:
[1] = molecular target: T1, Glycogen synthase kinase-3 beta (Homo sapiens, UniProt P49841); experiment: Inhibition of His-tagged full length human recombinant GSK3beta using [YRRAAVPPSPSLSRHSSPHQ-(pS)EDEEE] substrate and pre-incubarted for 20 mins before [gamma-33P]ATP addition and measured after 2 hrs by radiometric kinase assay
Target sequence in this assay (P49841 whole entry): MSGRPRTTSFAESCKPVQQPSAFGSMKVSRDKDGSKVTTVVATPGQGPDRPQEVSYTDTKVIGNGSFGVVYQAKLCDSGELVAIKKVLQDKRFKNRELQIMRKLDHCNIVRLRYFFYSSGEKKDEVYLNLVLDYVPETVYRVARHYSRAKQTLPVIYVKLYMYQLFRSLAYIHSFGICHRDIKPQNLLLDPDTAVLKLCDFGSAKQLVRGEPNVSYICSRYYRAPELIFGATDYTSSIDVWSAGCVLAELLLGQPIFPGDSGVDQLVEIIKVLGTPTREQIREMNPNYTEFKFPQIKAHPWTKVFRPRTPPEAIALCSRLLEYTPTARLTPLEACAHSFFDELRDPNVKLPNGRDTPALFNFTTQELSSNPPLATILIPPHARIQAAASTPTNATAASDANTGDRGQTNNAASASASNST

[2] = molecular target: Cyclin-dependent kinase 2 (Homo sapiens) (UniProt P24941); experiment: Inhibition of CDK2 (unknown origin) assessed as remaining enzyme activity at 1 uM
MDA-MB-231 = experiment: Antiproliferative activity against human MDA231 cells by MTT assay; type: functional, cell-based
[3] = molecular target: T1, Glycogen synthase kinase-3 beta; experiment: Inhibition of GSK3beta (unknown origin) assessed as remaining enzyme activity at 1 uM
Target sequence in this assay (P49841 whole entry, looked up): as the sequence (P49841 whole entry) above

MCF7 = experiment: Antiproliferative activity against human MCF7 cells by MTT assay; type: functional, cell-based
SK-BR-3 = experiment: Antiproliferative activity against human SKBR3 cells by MTT assay; type: functional, cell-based
[4] = molecular target: Aurora kinase B (Homo sapiens) (UniProt Q96GD4); experiment: Inhibition of Aurora kinase B (unknown origin) assessed as remaining enzyme activity at 1 uM
Aurora kinase B (Homo sapiens), sequence (Q96GD4 whole entry): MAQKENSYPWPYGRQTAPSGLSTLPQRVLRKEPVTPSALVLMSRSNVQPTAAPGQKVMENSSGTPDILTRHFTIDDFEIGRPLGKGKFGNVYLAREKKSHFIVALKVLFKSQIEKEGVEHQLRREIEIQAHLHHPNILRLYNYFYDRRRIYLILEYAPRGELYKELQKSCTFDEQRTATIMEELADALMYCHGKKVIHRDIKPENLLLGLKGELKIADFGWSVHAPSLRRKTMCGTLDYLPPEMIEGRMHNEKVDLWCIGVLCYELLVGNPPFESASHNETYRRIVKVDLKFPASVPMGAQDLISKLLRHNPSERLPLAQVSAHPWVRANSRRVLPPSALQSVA

| SMILES | pIC50 [1] | also measured |
| --- | --- | --- |
| O=C(CNC(=O)c1ccc2noc(-c3ccccc3)c2c1)NCCc1c[nH]c2ccccc12 | < 4.30 |  |
| O=C(/C=C/c1cnc2[nH]cc(-c3ccccc3)c2c1)NCCc1ccncc1 | 7.36 |  |
| O=C(/C=C/c1cnc2[nH]cc(-c3ccccc3)c2c1)NCc1nc2ccccc2[nH]1 | 7.21 |  |
| O=C(/C=C/c1cnc2[nH]cc(-c3cccnc3)c2c1)NCc1ccncc1 | 7.78 |  |
| CC(=O)c1ccc(-c2c[nH]c3ncc(/C=C/C(=O)NCc4ccncc4)cc23)cc1 | 8.85 |  |
| O=C(C/C=C/c1cnc2[nH]cc(-c3ccccc3)c2c1)NCCc1ccccc1 | < 4.30 |  |
| N#Cc1ccc(-c2c[nH]c3ncc(/C=C/C(=O)NCc4ccncc4)cc23)cc1 | 7.20 |  |
| O=C(/C=C/c1cnc2[nH]cc(-c3ccccc3)c2c1)NCc1ccco1 | 7.11 |  |
| O=C(/C=C/c1cnc2[nH]cc(-c3ccccc3)c2c1)NCCc1ccccc1 | 6.61 |  |
| O=C(CNC(=O)c1cnc2[nH]cc(-c3ccccc3)c2c1)NCCc1c[nH]c2ccccc12 | 5.84 |  |
| O=C(/C=C/c1cnc2[nH]cc(-c3ccccc3)c2c1)NCc1ccncc1 | 8.44 |  |
| NC(=O)c1ccc(-c2c[nH]c3ncc(/C=C/C(=O)NCc4ccncc4)cc23)cc1 | 8.35 |  |
| O=C(/C=C/c1cnc2[nH]cc(-c3ccccc3)c2c1)NCCc1c[nH]c2ncccc12 | 6.89 |  |
| CS(=O)(=O)c1ccc(-c2c[nH]c3ncc(/C=C/C(=O)NCc4ccncc4)cc23)cc1 | 6.66 |  |
| O=C(/C=C/c1cnc2[nH]cc(-c3ccccc3)c2c1)NCCN1CCOCC1 | 7.34 |  |
| O=C(/C=C/c1cnc2[nH]cc(-c3ccccc3)c2c1)NCCc1c[nH]c2ccccc12 | 6.45 |  |
| O=C(C/C=C/c1cnc2[nH]cc(-c3ccccc3)c2c1)NCCc1c[nH]c2ccccc12 | 5.42 |  |
| O=C(/C=C/c1cnc2[nH]cc(-c3ccccc3)c2c1)NCc1ccc2c(c1)CCO2 | 6.99 |  |
| O=C(/C=C/c1cnc2[nH]cc(-c3ccc(F)cc3)c2c1)NCc1ccncc1 | 7.64 |  |
| O=C(/C=C/c1cnc2[nH]cc(-c3ccccc3)c2c1)NCc1ccccn1 | 6.78 |  |
| O=C(CCc1cnc2[nH]cc(-c3ccccc3)c2c1)NCCc1c[nH]c2ccccc12 | 5.99 |  |
| O=C(CNC(=O)c1cnc2[nH]cc(-c3ccncc3)c2c1)NCCc1c[nH]c2ccccc12 | 6.00 |  |
| O=C(CNC(=O)c1ccc2[nH]cc(-c3ccncc3)c2c1)NCCc1c[nH]c2ccccc12 | 4.47 |  |
| COc1ccc(-c2c[nH]c3ncc(/C=C/C(=O)NCc4ccncc4)cc23)cc1 | 9.29 | Activity [2]: 97%; pIC50 (MDA-MB-231): < 5.00; Activity [3]: 1.2%; pIC50 (MCF7): < 5.00; pIC50 (SK-BR-3): < 5.00 |
| O=C(/C=C/c1cnc2[nH]cc(-c3ccncc3)c2c1)NCc1ccncc1 | 8.56 |  |
| CC(=O)c1ccc(-c2c[nH]c3ncc(/C=C/C(=O)NCCc4ccccn4)cc23)cc1 | 8.86 | Activity [2]: 85%; pIC50 (MDA-MB-231): < 5.00; Activity [4]: 23%; Activity [3]: 3.4%; pIC50 (MCF7): < 5.00; pIC50 (SK-BR-3): < 5.00 |
| O=C(/C=C/c1cnc2[nH]cc(-c3ccccc3)c2c1)NCc1cccnc1 | 7.19 |  |
| O=C(/C=C/c1cnc2[nH]cc(-c3ccccc3)c2c1)NCc1ccc2[nH]ccc2c1 | 6.34 |  |

Reference: ChEMBL document CHEMBL4428132, “Application of Fragment-Based de Novo Design to the Discovery of Selective Picomolar Inhibitors of Glycogen Synthase Kinase-3 Beta” (J Med Chem, 2016)
